Laboratory results from patent US9796687B2, “S-substituted quinazolines and their therapeutic applications for the treatment of diseases mediated by PDE7” (Consejo Superior De Investigaciones Cientificas (CSIC), priority 2016, dated 2017).
Like-named read-outs stand apart in the source and are kept apart here.

How the values were obtained:
PDE7A1 = PDE7A1 (Homo sapiens (Human), UniProt Q13946); assay: PDE7 inhibition, commercial phosphodiesterase activity kit ([3H]cAMP, SPA); type: biochemical
Method: Measurement of PDE7 inhibition was carried out using a commercial phosphodiesterase activity measurement kit.
Some of the compounds of the present invention (including those synthesised in Example 1) were evaluated. For this purpose, said compounds were incubated (in a range of concentrations from 0.1 nM to 100 μM) in the presence of 0.02 U/well of PDE7A1 and 0.05 μCi of [^3H] cAMP, for 20 minutes at 30° C. in the assay buffer supplied with the kit (total volume per well=100 μL). Once this time had elapsed, 50 μL of a 20 mg/mL suspension of SPA glass silicate microspheres were added and kept in agitation at ambient temperature for 60 minutes. After allowing the plate to rest for 20 minutes, the radioactivity was tested in a scintillation detector. All the assays included two points in the absence of PDE7A1 (blank/negative control) and two points with PDE7A1 in the absence of inhibitors (positive control).
The data were adjusted with a software program using non-linear adjustment.

PDE4B2 = PDE4B2 (Homo sapiens (Human), UniProt Q07343); assay: PDE4B2 inhibition; type: biochemical
Sequence of PDE4B2 (Q07343 other isoform, or with tags, fused parts or gaps, species assumed): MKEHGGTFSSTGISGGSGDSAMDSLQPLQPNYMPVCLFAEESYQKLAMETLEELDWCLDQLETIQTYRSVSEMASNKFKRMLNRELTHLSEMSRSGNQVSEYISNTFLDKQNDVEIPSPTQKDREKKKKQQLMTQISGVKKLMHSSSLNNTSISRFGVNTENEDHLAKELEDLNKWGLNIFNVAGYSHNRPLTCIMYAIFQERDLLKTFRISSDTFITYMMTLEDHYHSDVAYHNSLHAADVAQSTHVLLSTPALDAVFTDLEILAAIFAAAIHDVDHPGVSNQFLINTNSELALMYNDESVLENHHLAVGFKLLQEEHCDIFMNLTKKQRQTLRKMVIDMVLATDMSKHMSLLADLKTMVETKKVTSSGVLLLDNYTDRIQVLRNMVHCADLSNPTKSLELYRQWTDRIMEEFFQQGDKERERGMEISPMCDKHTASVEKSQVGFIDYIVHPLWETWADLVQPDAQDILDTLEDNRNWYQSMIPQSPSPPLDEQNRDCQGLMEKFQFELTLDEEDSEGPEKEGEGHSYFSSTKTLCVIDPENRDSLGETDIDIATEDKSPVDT

PDE4D3 = PDE4D3 (Homo sapiens (Human), UniProt Q08499); assay: PDE4D3 inhibition; type: biochemical
Sequence of PDE4D3 (Q08499 other isoform, or with tags, fused parts or gaps): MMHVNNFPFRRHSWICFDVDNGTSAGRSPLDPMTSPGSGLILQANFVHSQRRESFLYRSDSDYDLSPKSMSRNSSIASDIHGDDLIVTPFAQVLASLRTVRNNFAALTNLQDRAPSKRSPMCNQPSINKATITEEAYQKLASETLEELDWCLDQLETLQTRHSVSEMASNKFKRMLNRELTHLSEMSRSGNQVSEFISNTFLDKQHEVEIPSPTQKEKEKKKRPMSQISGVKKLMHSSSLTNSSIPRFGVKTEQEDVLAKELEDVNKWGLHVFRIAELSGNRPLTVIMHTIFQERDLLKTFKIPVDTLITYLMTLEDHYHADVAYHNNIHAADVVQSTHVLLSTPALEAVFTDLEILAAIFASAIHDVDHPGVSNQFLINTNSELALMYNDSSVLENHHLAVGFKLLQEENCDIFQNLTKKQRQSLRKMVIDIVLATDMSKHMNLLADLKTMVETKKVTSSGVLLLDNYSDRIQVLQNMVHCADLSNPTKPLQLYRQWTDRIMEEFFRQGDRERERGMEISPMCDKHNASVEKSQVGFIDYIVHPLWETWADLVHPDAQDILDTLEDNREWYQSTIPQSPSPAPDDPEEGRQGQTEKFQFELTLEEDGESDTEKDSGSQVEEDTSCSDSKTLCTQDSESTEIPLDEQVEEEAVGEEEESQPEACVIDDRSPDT

in vivo = conditions: C57BL/6, mouse
Method: (§1) After the blood extraction, the mice of each group were sacrificed by asphyxia with CO2, in order to obtain the brain. The brains were washed in a cold solution, dried in filter paper, weighed and placed in polypropylene tubes. The brains were homogenised with a buffered solution of phosphate pH 7.4, so that the total volume of the homogenate was three times the weight of the brain. The samples were stored at −70° C. until their analysis.
(§2) The extraction procedure for the plasma/brain homogenate or plasma calibration standard/doped brain samples was the same: 100 μL of the internal standard (imipramine, 500 ng/mL) were added, prepared in acetonitrile, to 25 μL of sample (plasma/brain) or doped calibration standard, and agitated with a vortex agitator for 5 minutes. As a blank (negative control), only acetonitrile was added. The samples were centrifugated for 10 min at 15000 rpm (20600 g) at 4° C. 100 μL of each supernatant were transferred to 96-well plates for its analysis by liquid chromatography-tandem mass spectrometry (LC-MS/MS). The calibration standards were prepared by doping 10 μL of analyte (compound to be studied, 1 mg/mL) in 190 μL of virgin plasma/brain homogenate (and subsequent serial dilutions).
(§3) The pharmacokinetic study was performed based on the time-concentration data obtained for the plasma and brain, by means of non-compartmental analysis using version 5.2 of WinNonlin®. The areas under the concentration-time curve (AUClast and AUCinf) were calculated using the linear trapezoidal rule.
(§4) The only difference lay in the administration of the compounds, which was via the oral route, in a suspension consisting of Tween 80 0.1% v/v and sodium carboxymethyl cellulose (NaCMC) 0.5% w/v in water. The compounds were administered at a dosage of 10 mg/kg, by gastric intubation using a 22-gauge oral feeding needle.

[1] = Pharmacokinetic studies in mice: exposure in plasma and brain; conditions: for levels in plasma and brain 2 hours after administration (elimination): intraperitoneal or oral administration; for Kp / Tmax / Cmax: C57BL/6, mouse; for Kp: brain; for Tmax: plasma and brain; for Cmax: plasma
Method: as §1, §2, §3, §4

hERG channel = hERG channel (Homo sapiens (Human), UniProt Q12809); assay: Toxicity on the cardiac hERG channel, FluxOR thallium fluorescence assay in HEK293 cells; type: cell-based
Sequence of hERG channel (Q12809 whole entry): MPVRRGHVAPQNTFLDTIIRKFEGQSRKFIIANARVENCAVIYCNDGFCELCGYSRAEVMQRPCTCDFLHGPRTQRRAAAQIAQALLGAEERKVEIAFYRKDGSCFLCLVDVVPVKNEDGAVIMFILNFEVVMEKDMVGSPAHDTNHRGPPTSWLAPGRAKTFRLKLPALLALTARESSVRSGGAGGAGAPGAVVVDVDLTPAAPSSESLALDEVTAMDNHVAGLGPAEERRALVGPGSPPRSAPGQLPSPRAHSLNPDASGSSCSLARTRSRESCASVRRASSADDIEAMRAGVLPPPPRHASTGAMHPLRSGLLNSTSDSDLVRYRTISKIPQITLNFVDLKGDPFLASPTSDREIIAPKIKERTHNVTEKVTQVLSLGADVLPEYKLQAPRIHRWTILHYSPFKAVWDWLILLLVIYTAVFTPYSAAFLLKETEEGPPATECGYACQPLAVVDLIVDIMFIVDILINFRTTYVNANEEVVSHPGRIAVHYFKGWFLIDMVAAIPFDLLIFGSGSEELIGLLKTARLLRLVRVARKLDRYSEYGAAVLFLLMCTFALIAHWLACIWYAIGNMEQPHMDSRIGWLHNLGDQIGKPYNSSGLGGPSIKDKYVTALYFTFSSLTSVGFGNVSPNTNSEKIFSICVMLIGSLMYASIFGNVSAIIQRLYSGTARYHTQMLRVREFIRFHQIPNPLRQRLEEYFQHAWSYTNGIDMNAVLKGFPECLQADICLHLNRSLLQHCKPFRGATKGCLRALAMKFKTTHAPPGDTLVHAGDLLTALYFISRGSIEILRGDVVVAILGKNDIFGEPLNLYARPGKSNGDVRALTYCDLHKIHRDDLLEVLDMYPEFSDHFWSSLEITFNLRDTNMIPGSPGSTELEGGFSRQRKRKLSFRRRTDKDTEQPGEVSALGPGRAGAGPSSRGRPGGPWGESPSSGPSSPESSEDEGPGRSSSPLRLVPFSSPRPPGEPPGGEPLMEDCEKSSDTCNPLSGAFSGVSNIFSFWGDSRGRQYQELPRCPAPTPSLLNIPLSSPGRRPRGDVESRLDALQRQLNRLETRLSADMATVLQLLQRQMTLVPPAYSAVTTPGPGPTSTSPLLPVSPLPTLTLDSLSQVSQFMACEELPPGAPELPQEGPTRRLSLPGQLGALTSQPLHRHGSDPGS
From the text: The hERG potassium channel contributes in the final phase of the action potential, bringing the cell to its resting state. If a drug suppresses the activity of the channel, it can produce a prolongation of the […], known as “long QT syndrome”, resulting in a fatal ventricular arrhythmia.
To characterise the behaviour of the hERG potassium channel in the presence of the compounds of the present invention, use was made of an assay based on a fluorescent probe (FluxOR®, Life Technologies) with high affinity for thallium, an indicator of the activity of the potassium ion channel. When the potassium channels open in response to a stimulus, the influx of thallium from the external environment is detected by the probe. The fluorescent signal is therefore proportional to the number of open potassium channels in the cell. The FluxOR® is added in ester form without fluorescent emission capacity, thus preventing the emission of fluorescence outside the cell. When it enters the cell, the cytosol esterases activate the FluxOR®, so that it is capable of binding the thallium that passes into the cytoplasm through the hERG channel and of emitting fluorescence.
Black plates containing 96 wells treated with poly-D-lysine were seeded with HEK293 cells (deposit number ATCC CRL-1573) modified to stably express the hERG channel. […] After one hour of incubation of the fluorochrome with the cells at ambient temperature, the plates were washed with 50 μL of assay buffer. Subsequently, 20 μL of the compounds to be studied were added at a dilution of 1:200 (2 μL of compound/400 μL of assay buffer), in triplicate, on 12-point curves (1:2 dilutions of the compound in DMSO). […]. After 30 minutes of incubation, the plates were read in a FLIPR TETRA®, which added 5 μL of stimulus buffer (Tl2SO4+K2SO4). […]

in vitro = conditions: PAMPA, pH 7.4
Method: (§5) PDVF membrane filters were used for filtering the samples (diameter 30 mm, pore size 0.45 μm).
(§6) Ten reference compounds were selected whose passage across the blood-brain barrier is known and in the public domain, in order to validate the experiment. […] The solutions were filtered. Afterwards, 180 μL of a solution of PBS/ethanol (70/30) were added to each well of the acceptor plate. The donor plate was impregnated with 4 μL of a solution of porcine brain lipid dissolved in dodecane (20 mg mL-1).
(§7) After 5 minutes, 180 μL of solution of each compound were added to this plate.
(§8) The donor plate was then placed on the acceptor plate, forming a kind of sandwich, and left to incubate for 2 h and 30 min at 25° C. The compounds passed by passive transport from the donor plate, through the porcine brain lipid, to the acceptor plate. After 2 h and 30 min, the donor plate was carefully removed.
(§9) The concentration and absorbance, both of the commercial compounds and of the compounds of the present invention that were evaluated in the acceptor and donor plates, were determined using a UV absorbance reader. Each sample was analysed at different wavelengths (between 3 and 5 absorbance minima and maxima were chosen for each compound at wavelength valves of between 220 nm and 450 nm), in 3 wells and in a minimum of 2 independent experiments. […] The measurements were carried out on the acceptor plate.

[2] = Parallel artificial membrane permeability assay (PAMPA) for CNS / blood-brain barrier permeability; conditions: pH 7.4
Method: as §5, §6, §7, §8, §9

[3] = mice, intraperitoneal administration, 10 mg/kg
[4] = mice, oral administration, 10 mg/kg
[5] = mice, oral administration, 10 mg/kg, Tmax 0.5 h

Sequence of PDE7A1 (Q13946 whole entry, species assumed): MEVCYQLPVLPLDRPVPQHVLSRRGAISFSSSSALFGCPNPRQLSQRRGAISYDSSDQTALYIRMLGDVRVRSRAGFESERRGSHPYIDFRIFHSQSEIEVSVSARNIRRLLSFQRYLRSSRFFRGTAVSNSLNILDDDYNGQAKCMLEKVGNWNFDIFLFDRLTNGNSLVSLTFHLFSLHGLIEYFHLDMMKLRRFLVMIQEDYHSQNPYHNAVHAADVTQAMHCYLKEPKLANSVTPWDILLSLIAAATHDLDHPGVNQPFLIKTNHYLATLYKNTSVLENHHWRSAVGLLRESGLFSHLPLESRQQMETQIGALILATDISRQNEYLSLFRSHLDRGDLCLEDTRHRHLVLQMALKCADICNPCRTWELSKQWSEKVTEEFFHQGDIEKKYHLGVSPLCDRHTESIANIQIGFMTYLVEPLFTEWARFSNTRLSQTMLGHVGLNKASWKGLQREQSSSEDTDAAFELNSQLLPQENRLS

Molecule `O=c1c2ccccc2nc(SCC2CCCCC2)n1-c1ccccc1` [Compound 1, 2-Cyclohexylmethylthio-3-phenyl-4-oxo-3,4-dihydroquinazoline] has an IC50 (PDE7A1; read-out: PDE7A IC50) of 200 nM, an inhibition at 10 µM (PDE4B2) of 18% and an inhibition at 10 µM (PDE4D3) of 49%.

With `O=c1c2ccccc2nc(SCC2CCCCC2)n1-c1ccccc1Br` [Compound 2, 3-(2-Bromophenyl)-2-cyclohexylmethylthio-4-oxo-3,4-dihydroquinazoline] the IC50 (PDE7A1; read-out: PDE7A IC50) was 2110 nM.

In the case of `CC(C)(C)CSc1nc2ccccc2c(=O)n1-c1ccccc1` [Compound 5, 3-Phenyl-2-neopentylthio-4-oxo-3,4-dihydroquinazoline], the IC50 (PDE7A1; Table 3, read-out: PDE inhibitory activity PDE7A CI50) is reported as 100 nM, the IC50 (PDE7A1; read-out: PDE7A IC50) is reported as 100 nM and the Kp (in vivo) is reported as > 1. It also gave a Cmax (in vivo; ip, 10 mg/kg) of 2310 nM, a Kp (in vivo; ip, 10 mg/kg) of 2.45 and a Tmax (in vivo; ip, 10 mg/kg) of 15 min. It also gave a Cmax (in vivo; po, 10 mg/kg) of 1380 nM, a Kp (in vivo; po, 10 mg/kg) of 1.19 and a Tmax (in vivo; po, 10 mg/kg) of 30 min. For the same molecule, the “Cmax/PDE7 IC50 ratio, brain” value [1, 3] was 56.5, the “Cmax/PDE7 IC50 ratio, plasma” value [1, 3] was 23.1 and the “Brain Cmax” value ([1]; mice, intraperitoneal administration, 10 mg/kg, Tmax 0.25 h) was 5650 nM. The “levels in plasma and brain 2 hours after administration (elimination)” value ([1]; mice, 10 mg/kg) was “still considerable levels”, the “Cmax/PDE7 IC50 ratio, brain” value [1, 4] was 16.4 and the “Cmax/PDE7 IC50 ratio, plasma” value [1, 4] was 13.8. For the same molecule, the “Brain Cmax” value [1, 5] was 1640 nM, the IC50 (hERG channel) was > 30000 nM and the cardiotoxic potential (hERG channel; deduced from hERG data) was “did not have any cardiotoxic potential”. It also gave an inhibition at 10 µM (PDE4B2) of 29% and an inhibition at 10 µM (PDE4D3) of 37%.

In the case of `Cc1cccc2c(=O)n(-c3c(F)cccc3F)c(SCC(C)(C)C)nc12` [Compound 6, 3-(2,6-Difluorophenyl)-8-methyl-2-neopentylthio-4-oxo-3,4-dihydroquinazoline], the IC50 (PDE7A1; read-out: PDE7A IC50) is reported as 8670 nM.

With `CC(C)(C)CSc1nc2c(Cl)cccc2c(=O)n1-c1ccccc1` [Compound 11, 8-Chloro-3-phenyl-2-neopentylthio-4-oxo-3,4-dihydroquinazoline] the IC50 (PDE7A1; read-out: PDE7A IC50) was 1200 nM.

`Cc1ccccc1-n1c(SCC(C)(C)C)nc2ccccc2c1=O` [Compound 13, 3-(2-Methylphenyl)-2-neopentylthio-4-oxo-3,4-dihydroquinazoline] gave an IC50 (PDE7A1; read-out: PDE7A IC50) of 1850 nM and a Papp at 2.5 h (in vitro) of 3.9 ± 0.7 ×10⁻⁶ cm/s.

Molecule `O=c1c2ccccc2nc(SCC2CC2)n1-c1ccccc1Br` [Compound 14, 3-(2-Bromophenyl)-2-cyclopropylmethylthio-4-oxo-3,4-dihydroquinazoline] has an IC50 (PDE7A1; read-out: PDE7A IC50) of 9440 nM and a Papp at 2.5 h (in vitro) of 1.9 ± 0.3 ×10⁻⁶ cm/s.

Work on `Cc1cccc2c(=O)n(-c3c(F)cccc3F)c(SCC3CC3)nc12` [Compound 15, 2-Cyclopropylmethylthio-3-(2,6-difluorophenyl)-8-methyl-4-oxo-3,4-dihydroquinazoline] yielded an IC50 (PDE7A1; read-out: PDE7A IC50) of 4560 nM and a Papp at 2.5 h (in vitro) of 1.3 ± 0.9 ×10⁻⁶ cm/s.

Work on `CCSc1nc2ccccc2c(=O)n1-c1ccccc1` [Compound 16, 2-Ethylthio-3-phenyl-4-oxo-3,4-dihydroquinazoline] yielded an IC50 (PDE7A1; read-out: PDE7A IC50) of 6900 nM and a Papp at 2.5 h (in vitro) of 7.9 ± 1.2 ×10⁻⁶ cm/s.

In the case of `CCSc1nc2ccccc2c(=O)n1-c1c(F)cccc1F` [Compound 17, 2-Ethylthio-3-(2,6-difluorophenyl)-4-oxo-3,4-dihydroquinazoline], the IC50 (PDE7A1; read-out: PDE7A IC50) is reported as 6990 nM and the Papp at 2.5 h (in vitro) is reported as 4.8 ± 0.6 ×10⁻⁶ cm/s.

Work on `CCSc1nc2c(Cl)cccc2c(=O)n1-c1c(F)cccc1F` [Compound 18, 8-Chloro-2-ethylthio-3-(2,6-difluorophenyl)-4-oxo-3,4-dihydroquinazoline] yielded an IC50 (PDE7A1; read-out: PDE7A IC50) of 2440 nM.

Molecule `O=c1c2ccccc2nc(SCc2ccccc2)n1-c1ccccc1` [Compound 21, 2-Benzylthio-3-phenyl-4-oxo-3,4-dihydroquinazoline] has an IC50 (PDE7A1; read-out: PDE7A IC50) of 600 nM, an inhibition at 10 µM (PDE4B2) of 28% and an inhibition at 10 µM (PDE4D3) of 38%.

Work on `O=c1c2ccccc2nc(SCc2ccccn2)n1-c1ccccc1` [Compound 23, 3-Phenyl-2-(2-pyridylmethylthio)-4-oxo-3,4-dihydroquinazoline] yielded an IC50 (PDE7A1; read-out: PDE7A IC50) of 800 nM and a Papp at 2.5 h (in vitro) of 12.4 ± 2.2 ×10⁻⁶ cm/s.

With `O=c1c2ccccc2nc(SCc2cccnc2)n1-c1ccccc1` [Compound 24, 3-Phenyl-2-(3-pyridylmethylthio)-4-oxo-3,4-dihydroquinazoline] the IC50 (PDE7A1; read-out: PDE7A IC50) was 700 nM and the Papp at 2.5 h (in vitro) was 18.6 ± 1.7 ×10⁻⁶ cm/s.

Molecule `O=c1[nH]c(SCc2cccnc2)nc2c(Cl)cccc12` [Compound 25, 8-Chloro-2-(3-pyridylmethylthio)-4-oxo-3,4-dihydroquinazoline] has an IC50 (PDE7A1; read-out: PDE7A IC50) of 540 nM and a Papp at 2.5 h (in vitro) of 12.1 ± 3.9 ×10⁻⁶ cm/s.

In the case of `Cc1ccccc1-n1c(SCc2cccnc2)nc2ccccc2c1=O` [Compound 26, 3-(2-Methylphenyl)-2-(3-pyridylmethylthio)-4-oxo-3,4-dihydroquinazoline], the IC50 (PDE7A1; read-out: PDE7A IC50) is reported as 120 nM and the Papp at 2.5 h (in vitro) is reported as 20.1 ± 0.1 ×10⁻⁶ cm/s.

`O=c1c2ccccc2nc(SCc2ccncc2)n1-c1ccccc1` [Compound 27, 3-Phenyl-2-(4-pyridylmethylthio)-4-oxo-3,4-dihydroquinazoline] showed an IC50 (PDE7A1; read-out: PDE7A IC50) of 2600 nM and a Papp at 2.5 h (in vitro) of 15.9 ± 1.3 ×10⁻⁶ cm/s.

In the case of `O=c1c2ccccc2nc(SCc2ccc3ccccc3c2)n1-c1ccccc1` [Compound 28, 3-Phenyl-2-(2-naphthylmethylthio)-4-oxo-3,4-dihydroquinazoline], the IC50 (PDE7A1; read-out: PDE7A IC50) is reported as 90 nM.

For `CN1C(C(=O)Nc2ccccn2)=C(O)c2ccccc2S1(=O)=O` [Piroxicam, piroxicam], the Papp at 2.5 h [2] was 0.2 ± 0.1 ×10⁻⁶ cm/s.

With `S=c1[nH]c2ccccc2c(=S)n1-c1ccccc1` [TC3.6, 3-Phenyl-2,4-dithioxo-1,2,3,4-tetrahydroquinazoline] the Kp ([1]; ip, 10 mg/kg) was 0.51, the Kp ([1]; other: intraperitoneal and oral, 10 mg/kg) was < 1 and the Kp ([1]; po, 10 mg/kg) was 0.43. The Tmax ([1]; ip, 10 mg/kg) was 15 min, the Tmax ([1]; po, 10 mg/kg) was 30 min and the Cmax ([1]; ip, 10 mg/kg) was 6790 nM. For the same molecule, the Cmax ([1]; po, 10 mg/kg) was 860 nM, the “Cmax/PDE7 IC50 ratio, brain” value [1, 3] was 3.33 and the “Cmax/PDE7 IC50 ratio, plasma” value [1, 3] was 6.53. For the same molecule, the “levels in plasma and brain 2 hours after administration (elimination)” value ([1]; mice, 10 mg/kg) was “almost eliminated”, the “Cmax/PDE7 IC50 ratio, brain” value [1, 4] was 0.36 and the “Cmax/PDE7 IC50 ratio, plasma” value [1, 4] was 0.83. For the same molecule, the “Brain Cmax” value [1, 5] was 370 nM, the “Brain Cmax” value ([1]; mouse, in vivo) was 3460 nM and the IC50 (hERG channel; stimulated the opening of the potassium channel, HEK293 hERG, FluxOR) was 5190 nM.
